Series [1] concerns alcohol-preferring (P) rats. Kind of series: Operant self-administration, concurrent FR4 schedule for EtOH and saccharin. It is filed as in vivo, rat. Conditions: for EtOH-maintained responding / saccharin-maintained responding: bilateral infusion 5-40 μg in NACC/caudate putamen (neuroanatomical control). The protocol:
Behavioral testing was conducted in 15 standard operant chambers (Coulbourn Instruments) equipped with two removable levers and two dipper fluid delivery systems enclosed in sound-attenuated cubicles as previously described (June et al., 1998a,b). A concurrent fixed-ratio schedule was employed to investigate the capacity of systemic and direct microinjections of 3-PBC in the CNS to modify EtOH and saccharin-maintained responding. The specific details of these procedures have recently been described (June et al., 1998; 1999; 2001). In brief, rats were initially trained to orally self-administer EtOH and water in daily 60 min sessions on a concurrent FRI schedule in a two-lever choice situation. After a period of stabilization on the FRI schedule, the response requirement was increased to a concurrent FR4 schedule and the water reinforcer was replaced with saccharin (0.025-0.05% w/v). The importance of alternative and concurrently presented reinforcers in examining the positive reinforcing properties of drugs of abuse has been discussed previously (Meisch and Lemaire, 1993; June et al., 2001; June in press).
3-PBC was administered 15 min before the operant session to allow for optimal absorption and CNS distribution. […] The duration of the operant sessions was 60 min, however, subjects were tested at 24 and 48 hour post drug administration to determine any residual drug effects. A minimum of 72-96 hours were allocated between drug treatments to permit animals to return to baseline levels. This period prevented confounding of drug treatments due to residual effects (for details see June et al., 1998b).
Guide cannulas were stereotaxically implanted bilaterally in the anterior (AP +0.48; ML ±1.6; DV −7.2, with 6° lateral angle) (n=8) and medial (AP −0.26; ML ±2.5; DV −7.0) (n=6) VP. The neuroanatomical control rats were bilaterally implanted in either the caudate putamen or NACC. The coordinates for the caudate putamen were AP +1.5; ML ±2.5; DV 4.2 (n=3). In the NACC group some rats were implanted in the shell [AP +1.4; ML +0.8; DV −6.0] (n=3) while others were implanted in the core [AP +1.4; ML ±1.7; DV −5.71] (n=3). All coordinates are given in millimeters relative to Bregma based on the Paxinos and Watson (1998) atlas. Subjects were given 7 days to recover from surgery before returning to training in the operant chamber. The 3-PBC infusions were delivered immediately before the operant session with a Harvard infusion pump in aCSF (composition in mM: NaCl, 120; KCl, 4.8; KH2PO4, 1.2; MgSO4, 1.2; NaHCO3, 25; CaCl2, 2.5; d-glucose, 10) as previously described (for details see June et al., 2001).
Statistical Analysis The operant maintained responding data were analyzed by a single factor repeated measures ANOVA with drug treatment (i.e., dose) as the independent factor. The dependent variables were EtOH and saccharin-maintained responding. Each dependent variable was analyzed separately. Post-hoc comparisons between individual drug treatments were made using the Newman Keuls Test in all experiments. In systemic studies, drug treatment comparisons were made against the no injection (e.g., baseline=BL) and Tween-20 vehicle control conditions. In the microinjection studies, drug treatment comparisons were made against the no injection control condition (e.g., baseline=BL) and aCSF control condition. All microinjection data were obtained and analyzed following correct histological verification under a light microscope. To determine the time course of antagonism across the 60 min session, a single factor ANOVA was conducted at each of the six-10 min intervals on the cumulative response data for the respective drug treatment conditions relative to the pooled controlled conditions. EtOH and saccharin maintained responding data were analyzed separately. Post-hoc analyses were performed on the cumulative interval data using the least significant difference (LSD) test. […]

The target in the next series is T1, α6β3γ2 GABAA receptor (Homo sapiens, UniProt P18507+Q16445).
T1 construct: expressed in transfected cells
T1 sequence (Q16445 20-453): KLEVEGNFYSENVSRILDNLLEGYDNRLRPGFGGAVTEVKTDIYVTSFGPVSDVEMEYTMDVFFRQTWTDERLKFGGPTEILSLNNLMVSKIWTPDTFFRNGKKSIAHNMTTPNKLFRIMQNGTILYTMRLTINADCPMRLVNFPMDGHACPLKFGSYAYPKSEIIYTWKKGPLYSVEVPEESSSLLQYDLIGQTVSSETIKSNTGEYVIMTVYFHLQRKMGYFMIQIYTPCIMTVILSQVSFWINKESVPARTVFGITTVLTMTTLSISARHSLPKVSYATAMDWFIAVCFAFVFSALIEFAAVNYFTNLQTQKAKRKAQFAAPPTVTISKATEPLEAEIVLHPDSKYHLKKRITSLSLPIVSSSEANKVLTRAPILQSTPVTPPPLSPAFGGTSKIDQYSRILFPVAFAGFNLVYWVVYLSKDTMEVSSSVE
T1 sequence (P28472 26-473 partner): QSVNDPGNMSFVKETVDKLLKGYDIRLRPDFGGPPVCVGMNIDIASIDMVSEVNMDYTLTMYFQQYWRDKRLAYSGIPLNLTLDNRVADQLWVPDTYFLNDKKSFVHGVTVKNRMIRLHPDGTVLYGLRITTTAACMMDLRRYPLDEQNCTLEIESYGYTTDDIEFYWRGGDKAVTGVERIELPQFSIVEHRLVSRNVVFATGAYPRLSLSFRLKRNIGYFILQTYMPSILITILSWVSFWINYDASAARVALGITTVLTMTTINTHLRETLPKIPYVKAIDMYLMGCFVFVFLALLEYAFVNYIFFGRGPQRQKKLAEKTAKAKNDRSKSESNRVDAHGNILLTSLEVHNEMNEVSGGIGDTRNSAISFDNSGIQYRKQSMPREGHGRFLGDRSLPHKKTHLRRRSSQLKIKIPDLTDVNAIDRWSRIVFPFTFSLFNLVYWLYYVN
T1 sequence (P18507 40-475): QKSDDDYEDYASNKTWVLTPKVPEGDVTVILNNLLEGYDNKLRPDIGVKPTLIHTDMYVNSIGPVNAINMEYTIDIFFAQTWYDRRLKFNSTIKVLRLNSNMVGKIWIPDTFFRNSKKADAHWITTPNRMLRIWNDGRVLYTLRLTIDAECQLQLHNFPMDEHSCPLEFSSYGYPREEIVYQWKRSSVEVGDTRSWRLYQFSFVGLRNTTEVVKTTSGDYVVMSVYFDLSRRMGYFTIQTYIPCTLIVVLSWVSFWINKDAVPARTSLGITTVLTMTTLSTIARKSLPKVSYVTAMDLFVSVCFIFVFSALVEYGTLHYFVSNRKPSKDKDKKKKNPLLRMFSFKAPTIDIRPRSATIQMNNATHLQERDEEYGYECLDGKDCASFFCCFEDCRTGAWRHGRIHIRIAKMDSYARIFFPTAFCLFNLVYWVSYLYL
Kind of series: Binding affinity at recombinant GABAA receptors (Ltk cells stably transfected). Particulars: recombinant αxβ3γ2; read-out: Ki α6.

A further series concerns selected rodent lines. The experiment in a line: Plus-maze test in selected rodent lines. It counts as in vivo. Conditions: particularly at moderate to high doses (>7.5 mg/kg).
A further series concerns mice. Particulars: doses as high as 60 mg/kg (Griebel et al., 1999); cited from earlier work.
The target in another series is T2, α3β3γ2 GABAA receptor (Homo sapiens, UniProt P18507+P34903).
T2 construct: expressed in transfected cells
T2 sequence (P34903 29-492): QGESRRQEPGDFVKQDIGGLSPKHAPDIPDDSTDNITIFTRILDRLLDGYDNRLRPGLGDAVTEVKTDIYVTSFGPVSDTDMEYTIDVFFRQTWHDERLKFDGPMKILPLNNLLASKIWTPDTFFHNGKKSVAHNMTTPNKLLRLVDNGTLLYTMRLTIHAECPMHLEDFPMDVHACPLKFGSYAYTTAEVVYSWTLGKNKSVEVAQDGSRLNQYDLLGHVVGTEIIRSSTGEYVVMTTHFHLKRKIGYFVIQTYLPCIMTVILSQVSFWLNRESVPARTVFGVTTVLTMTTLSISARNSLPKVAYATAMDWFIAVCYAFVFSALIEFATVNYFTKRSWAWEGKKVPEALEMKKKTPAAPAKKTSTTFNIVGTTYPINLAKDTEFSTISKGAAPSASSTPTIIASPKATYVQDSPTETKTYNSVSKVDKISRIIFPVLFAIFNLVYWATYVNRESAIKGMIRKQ
T2 sequence (P28472 26-473 partner): as the sequence (P28472 26-473 partner) above
T2 sequence (P18507 40-475): as the sequence (P18507 40-475) above
Kind of series: Binding affinity at recombinant GABAA receptors (Ltk cells stably transfected).

For a further series, the target named is T3, α1β3γ2 GABAA receptor (Homo sapiens, UniProt P14867+P18507).
T3 construct: expressed in transfected cells
T3 sequence (P14867 28-456): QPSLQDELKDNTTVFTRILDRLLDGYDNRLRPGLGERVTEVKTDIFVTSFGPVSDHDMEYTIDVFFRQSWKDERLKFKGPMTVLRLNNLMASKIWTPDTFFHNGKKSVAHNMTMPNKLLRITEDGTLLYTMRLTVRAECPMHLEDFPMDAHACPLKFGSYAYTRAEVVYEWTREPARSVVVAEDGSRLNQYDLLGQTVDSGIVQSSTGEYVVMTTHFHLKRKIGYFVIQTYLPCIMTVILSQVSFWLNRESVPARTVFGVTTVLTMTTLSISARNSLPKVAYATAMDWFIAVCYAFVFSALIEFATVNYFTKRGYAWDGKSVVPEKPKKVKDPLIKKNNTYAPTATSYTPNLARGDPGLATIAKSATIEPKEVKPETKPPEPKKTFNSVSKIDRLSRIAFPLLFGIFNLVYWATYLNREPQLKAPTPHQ
T3 sequence (P28472 26-473 partner): as the sequence (P28472 26-473 partner) above
T3 sequence (P18507 40-475): as the sequence (P18507 40-475) above
The description is as above.

In a further series the test system is GABAA α3β3γ2 receptors. Kind of series: Xenopus oocyte expression assay, modulation of GABA current. It counts as cell-based, rat. Particulars: saturating 1-10 μM modulator with EC50 GABA (30 μM); mean±S.D.
A further series has as its target T4, α5β3γ2 GABAA receptor (Homo sapiens, UniProt P18507+P31644).
T4 construct: expressed in transfected cells
The experiment in a line: Binding affinity at recombinant GABAA receptors (Ltk cells stably transfected).

The test system of a further series is P rats. Kind of series: EtOH and sucrose responding after oral (gavage) administration. It is filed as in vivo, rat. Conditions: for responding for sucrose: oral (gavage) 75 mg/kg; for EtOH responding / EtOH responding 24 hours after administration: oral (gavage); for EtOH responding: βCCt 15 & 30 mg/kg, 3-PBC 30-75 mg/kg, naltrexone 30-75 mg/kg; for EtOH responding 24 hours after administration: βCCt 15 & 75 mg/kg. From the text:
In this study we compared the suppressant effect of βCCt and 3-PBC with naltrexone, a currently used alcohol antagonist on the market. As it is shown in FIG. 29A-B, orally administered βCCt can reduce alcohol responding, however, the effects are not dose related. In addition, 24 hr after administration of βCCt, it continues to reduce alcohol responding with selected doses. […] The suppressant effects of naltrexone in reducing alcohol responding are also dissipated 24 hr after the administration. […] Unlike naltrexone, the suppressant effects observed by βCCt and 3-PBC are selective for alcohol, and not reinforcers in general.

The next series concerns the target T5, α2β3γ2 GABAA receptor (Homo sapiens, UniProt P18507+P47869).
T5 construct: expressed in transfected cells
The experiment in a line: Binding affinity at recombinant GABAA receptors (Ltk cells stably transfected).

The next series has as its system GABAA α2β3γ2 receptors. The experiment in a line: Xenopus oocyte expression assay, modulation of GABA current. It counts as cell-based, rat. Conditions: saturating 1-10 μM modulator with EC50 GABA (50 μM); mean±S.D.
The mark [2] stands for this setting: bilateral infusion in ventral pallidum (VP), 3-PBC 0.5-40 μg, βCCt 5-40 μg.
The mark [3] stands for this setting: i.p. 15 min before 60 min session, 3-PBC 1-20 mg/kg, βCCt 5-40 mg/kg.
Setting [4] is: i.p., 3-PBC 1-10 mg/kg, βCCt 5-40 mg/kg.

SMILES strings stand for the structures. Like-named read-outs stand apart in the source and are kept apart here.

T4 sequence (P31644 32-462): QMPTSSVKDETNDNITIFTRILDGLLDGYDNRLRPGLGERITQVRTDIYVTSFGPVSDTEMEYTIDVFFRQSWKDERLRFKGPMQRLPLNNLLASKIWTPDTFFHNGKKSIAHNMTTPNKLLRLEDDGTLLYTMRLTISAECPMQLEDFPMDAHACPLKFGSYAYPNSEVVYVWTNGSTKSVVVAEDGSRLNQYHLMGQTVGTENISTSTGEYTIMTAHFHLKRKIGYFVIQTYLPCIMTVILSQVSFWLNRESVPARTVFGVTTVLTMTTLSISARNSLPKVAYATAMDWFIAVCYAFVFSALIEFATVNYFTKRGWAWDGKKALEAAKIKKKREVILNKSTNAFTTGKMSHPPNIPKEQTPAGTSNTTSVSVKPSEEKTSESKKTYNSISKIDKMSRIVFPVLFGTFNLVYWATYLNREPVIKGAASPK
T4 sequence (P28472 26-473 partner): as the sequence (P28472 26-473 partner) above
T4 sequence (P18507 40-475): as the sequence (P18507 40-475) above
T5 sequence (P47869 29-451): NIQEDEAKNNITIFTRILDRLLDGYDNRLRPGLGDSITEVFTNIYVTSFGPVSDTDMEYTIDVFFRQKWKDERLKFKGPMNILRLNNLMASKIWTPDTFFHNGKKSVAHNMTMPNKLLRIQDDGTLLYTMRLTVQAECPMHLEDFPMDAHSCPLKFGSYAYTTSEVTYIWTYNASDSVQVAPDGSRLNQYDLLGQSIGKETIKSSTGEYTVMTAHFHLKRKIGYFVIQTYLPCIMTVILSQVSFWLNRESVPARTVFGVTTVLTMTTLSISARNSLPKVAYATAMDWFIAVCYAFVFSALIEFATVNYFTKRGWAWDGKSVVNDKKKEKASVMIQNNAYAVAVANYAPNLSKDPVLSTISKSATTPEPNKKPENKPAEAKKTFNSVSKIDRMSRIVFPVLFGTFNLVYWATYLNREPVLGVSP
T5 sequence (P28472 26-473 partner): as the sequence (P28472 26-473 partner) above
T5 sequence (P18507 40-475): as the sequence (P18507 40-475) above

Turning to `CC(C)(C)OC(=O)c1cc2c(cn1)[nH]c1ccccc12` [βCCt, β-carboline-3-carboxylate t-butyl ester], the EtOH-maintained responding result in [1] is “none of the βCCt treatments altered”. Besides, in series [1], the saccharin-maintained responding result is reported as “none of the βCCt treatments altered”. Also, the “saccharin-maintained responding, total session” value in series [1] (bilateral infusion in VP) is “did not alter”; in series [1] (setting [4]), “without effect”. The “EtOH-maintained responding, total session” value in series [1] (setting [2]) is “dose-dependently reduced”; in [1] (setting [3]) it was “all doses significantly suppressed”. In addition, in series [1] (i.p. 40 mg/kg, 24 hr post-drug administration), the “suppression of EtOH responding 24 hr post-drug” value is reported as 76 % of control levels. Moreover, the Ki at α6β3γ2 GABAA receptor was more than 1000 nM; on α3β3γ2 GABAA receptor it was 18.9 nM; on α1β3γ2 GABAA receptor, 0.72 nM; at α5β3γ2 GABAA receptor it was 111 nM; at α2β3γ2 GABAA receptor, 15 nM. The “anxiolytic effects in the plus-maze test” value in the series on selected rodent lines is “capable of producing anxiolytic effects”. In addition, the “intrinsic activity in the open field” value in the series on mice is listed as “failed to produce intrinsic activity”. At α1β3γ2 GABAA receptor (binding selectivity), the “fold more selective than flumazenil at α1 sites” value was “over 20 fold”. Moreover, at α1β3γ2 GABAA receptor (binding selectivity), the “fold more selective than zolpidem at α1 sites” value was 3.5 fold. The “% of GABA response, α3” value with GABAA α3β3γ2 receptors came to 108±6%. Further, the responding for sucrose entry with P rats was “fails to alter responding for sucrose”. Also, the EtOH responding result in the series with P rats is given as “significantly reduces EtOH responding”. In addition, in the series with P rats, the “EtOH responding 24 hours after administration” value is on record as “significantly reduce EtOH responding”.
Consider `CCCOc1cc2c(cn1)[nH]c1ccccc12.Cl` [3-PBC, 3-Propoxy-β-carboline hydrochloride], for which, in the series with GABAA α2β3γ2 receptors, the “% of GABA response, α2” value is 116±7%. Further, in [1] (VP infusion, initial 10 and 20 min intervals), the “cumulative within session alcohol responding” value was “significant reduction”. In [1], the EtOH-maintained responding result is given as “without effect”. For the same compound, the saccharin-maintained responding result in series [1] is given as “without effect”. Further, the figures for the “saccharin-maintained responding, total session” value in series [1] (bilateral infusion in VP), in series [1] (i.p. 20 mg/kg) and in [1] (setting [4]) were “only the 40 μg dose significantly reduced saccharin responding”, “significantly suppressed” and “significant elevation”, respectively. For the same compound, the “EtOH-maintained responding, total session” value is recorded as “dose-dependently reduced” in series [1] (setting [2]) and “significant dose-related reduction” in [1] (setting [3]). The “cumulative within session EtOH responding” value in [1] (i.p., first 10, 20 and 30 min intervals) is recorded as “suppressed the initiation of EtOH responding”. Moreover, the Ki at α6β3γ2 GABAA receptor was more than 1000 nM; on α3β3γ2 GABAA receptor (recombinant αxβ3γ2, read-out: Ki α3), 68.8 nM; at α1β3γ2 GABAA receptor (recombinant αxβ3γ2, read-out: Ki α1), 5.3 nM; at α5β3γ2 GABAA receptor (recombinant αxβ3γ2, read-out: Ki α5), 591 nM; on α2β3γ2 GABAA receptor (recombinant αxβ3γ2, read-out: Ki α2) it was 52.3 nM. The “anxiolytic effects in the plus-maze test” value in the series with selected rodent lines was “capable of producing anxiolytic effects”. In addition, the “selectivity for α1 relative to α2” value on α1β3γ2 GABAA receptor (binding selectivity) is listed as 9.8 fold. Besides, the “selectivity for α1 relative to α3” value on α1β3γ2 GABAA receptor (binding selectivity) was determined as 13 fold. In addition, on α1β3γ2 GABAA receptor (binding selectivity), the “selectivity for α1 relative to α5” value is recorded as 111 fold. Besides, in the series with GABAA α3β3γ2 receptors, the “% of GABA response, α3” value is recorded as 119±6%. In addition, the responding for sucrose result in the series on P rats is “fails to alter responding for sucrose”. The EtOH responding entry in the series with P rats is on record as “dose-dependently reduces EtOH responding”. Moreover, in the series with P rats, the “EtOH responding 24 hours after administration” value is given as “dissipated”.

These data come from patent publication US20030176456A1, “Methods for reducing alcohol cravings in chronic alcoholics” (priority 2001, published 2003).
